Values of other authors in patent US20250302767A1, “TREATMENT OF CANCER AND AUTOIMMUNE DISORDERS USING NANO POLYMERS OF HISTONE DEACETYLASE INHIBITORS” (University of Virginia Patent Foundation, priority 2021, published 2025).

Legend:
PTCL = settings: patients with PTCL, single agent, cited from earlier work; for Outcomes: ORR: pivotal trial cited per drug (romidepsin: trial (6) Coiffier et al., 2014); for Outcomes: CR / Outcomes: DOR: pivotal trial cited per drug (romidepsin: trial (6))
ALCL = settings: patients with ALCL, pivotal trials (3, 4); cited from earlier work

O=C(/C=C/c1cccc(S(=O)(=O)Nc2ccccc2)c1)NO [Belinostat]
Outcomes: ORR (PTCL): 26% | Outcomes: CR (PTCL): 11% | Outcomes: DOR (PTCL): 13.6 months

Nc1cc(F)ccc1NC(=O)c1ccc(CNC(=O)/C=C/c2cccnc2)cc1 [Chidamide, N-(2-Amino-4-fluorophenyl)-4-[[[(E)-3-pyridin-3-ylprop-2-enoyl]amino]methyl]benzamide]
Outcomes: ORR (PTCL): 28% | Outcomes: CR (PTCL): 14% | Outcomes: DOR (PTCL): 9.9 months

C#CCC(Cc1cnc2nc(N)nc(N)c2n1)c1ccc(C(=O)N[C@@H](CCC(=O)O)C(=O)O)cc1 (stereo partly drawn) [Pralatrexate]
Outcomes: ORR (PTCL): 29% | Outcomes: CR (PTCL): 11% | Outcomes: DOR (PTCL): 10.1 months

Brentuximab vedotin
Outcomes: CR (ALCL): 57% | Outcomes: DOR (ALCL): 13.2 months | Outcomes: ORR (ALCL): 86%
